# According to paper PMC10339703 (Clinical and Translational Science, 2023):
# Tested on: healthy subjects
# Assay: Safety and tolerability
# Type: in vivo, human
# [1] = MAD 100 mg tablet b.i.d. 14 days
# [2] = MAD 200 mg tablet b.i.d. 14 days
smiles,measurement,setting,value
O[C@H]1CCCN[C@@H]1CCCn1cnc2c(Cl)c(Cl)ccc21 [Bersiporocin],"ADRs, number of events",[1],32
same,"Abdominal discomfort (ADR), subjects n (%)",[1],0
same,"Abdominal distension (ADR), number of events",[1],3
same,"Abdominal distension (ADR), subjects n (%)",[1],2 (33.3)
same,"Abdominal pain (ADR), number of events",[1],8
same,"Abdominal pain (ADR), subjects n (%)",[1],3 (50.0)
same,"Abdominal pain upper (ADR), number of events",[1],2
same,"Abdominal pain upper (ADR), subjects n (%)",[1],2 (33.3)
same,"Acne (ADR), subjects n (%)",[1],0
same,"Alanine aminotransferase increased (ADR), subjects n (%)",[1],0
same,"Altered visual depth perception (ADR), subjects n (%)",[1],0
same,"Balance disorder (ADR), subjects n (%)",[1],0
same,"Bowel movement irregularity (ADR), subjects n (%)",[1],0
same,"Cold sweat (ADR), subjects n (%)",[1],0
same,"Constipation (ADR), number of events",[1],2
same,"Constipation (ADR), subjects n (%)",[1],2 (33.3)
same,"Decreased appetite (ADR), subjects n (%)",[1],0
same,"Diarrhea (ADR), number of events",[1],4
same,"Diarrhea (ADR), subjects n (%)",[1],3 (50.0)
same,"Dizziness (ADR), subjects n (%)",[1],0
same,"Dry mouth (ADR), subjects n (%)",[1],0
same,"Dysgeusia (ADR), subjects n (%)",[1],0
same,"Eructation (ADR), subjects n (%)",[1],0
same,"Esophageal pain (ADR), number of events",[1],1
same,"Esophageal pain (ADR), subjects n (%)",[1],1 (16.7)
same,"Euphoric mood (ADR), subjects n (%)",[1],0
same,"Feces discolored (ADR), subjects n (%)",[1],0
same,"Feces soft (ADR), number of events",[1],2
same,"Feces soft (ADR), subjects n (%)",[1],2 (33.3)
same,"Feeling hot (ADR), subjects n (%)",[1],0
same,"Flatulence (ADR), subjects n (%)",[1],0
same,"Gastroesophageal reflux disease (ADR), subjects n (%)",[1],0
same,"Headache (ADR), subjects n (%)",[1],0
same,"Hypoesthesia (ADR), subjects n (%)",[1],0
same,"Impaired healing (ADR), number of events",[1],1
same,"Impaired healing (ADR), subjects n (%)",[1],1 (16.7)
same,"Malaise (ADR), subjects n (%)",[1],0
same,"Myalgia (ADR), subjects n (%)",[1],0
same,"Nausea (ADR), number of events",[1],4
same,"Nausea (ADR), subjects n (%)",[1],3 (50.0)
same,"Neutropenia (ADR), subjects n (%)",[1],0
same,"Oropharyngeal pain (ADR), subjects n (%)",[1],0
same,"Papule (ADR), number of events",[1],1
same,"Papule (ADR), subjects n (%)",[1],1 (16.7)
same,"Pollakiuria (ADR), subjects n (%)",[1],0
same,"Presyncope (ADR), number of events",[1],1
same,"Presyncope (ADR), subjects n (%)",[1],1 (16.7)
same,"Proctalgia (ADR), subjects n (%)",[1],0
same,"Salivary hypersecretion (ADR), subjects n (%)",[1],0
same,"Skin irritation (ADR), number of events",[1],1
same,"Skin irritation (ADR), subjects n (%)",[1],1 (16.7)
same,"Somnolence (ADR), subjects n (%)",[1],0
same,"Subjects with ADRs, n (%)",[1],6 (100)
same,"Transaminases increased (ADR), subjects n (%)",[1],0
same,"Tremor (ADR), subjects n (%)",[1],0
same,"Vomiting (ADR), number of events",[1],2
same,"Vomiting (ADR), subjects n (%)",[1],1 (16.7)
same,"ADRs, number of events",[2],58
same,"Abdominal discomfort (ADR), subjects n (%)",[2],0
same,"Abdominal distension (ADR), number of events",[2],5
same,"Abdominal distension (ADR), subjects n (%)",[2],3 (50.0)
same,"Abdominal pain (ADR), number of events",[2],14
same,"Abdominal pain (ADR), subjects n (%)",[2],3 (50.0)
same,"Abdominal pain upper (ADR), subjects n (%)",[2],0
same,"Acne (ADR), number of events",[2],1
same,"Acne (ADR), subjects n (%)",[2],1 (16.7)
same,"Alanine aminotransferase increased (ADR), subjects n (%)",[2],0
same,"Altered visual depth perception (ADR), subjects n (%)",[2],0
same,"Balance disorder (ADR), number of events",[2],1
same,"Balance disorder (ADR), subjects n (%)",[2],1 (16.7)
same,"Bowel movement irregularity (ADR), subjects n (%)",[2],0
same,"Cold sweat (ADR), subjects n (%)",[2],0
same,"Constipation (ADR), subjects n (%)",[2],0
same,"Decreased appetite (ADR), subjects n (%)",[2],0
same,"Diarrhea (ADR), number of events",[2],7
same,"Diarrhea (ADR), subjects n (%)",[2],4 (66.7)
same,"Dizziness (ADR), number of events",[2],2
same,"Dizziness (ADR), subjects n (%)",[2],2 (33.3)
same,"Dry mouth (ADR), subjects n (%)",[2],0
same,"Dysgeusia (ADR), subjects n (%)",[2],0
same,"Eructation (ADR), number of events",[2],1
same,"Eructation (ADR), subjects n (%)",[2],1 (16.7)
same,"Esophageal pain (ADR), subjects n (%)",[2],0
same,"Euphoric mood (ADR), subjects n (%)",[2],0
same,"Feces discolored (ADR), subjects n (%)",[2],0
same,"Feces soft (ADR), subjects n (%)",[2],0
same,"Feeling hot (ADR), subjects n (%)",[2],0
same,"Flatulence (ADR), number of events",[2],1
same,"Flatulence (ADR), subjects n (%)",[2],1 (16.7)
same,"Gastroesophageal reflux disease (ADR), subjects n (%)",[2],0
same,"Headache (ADR), number of events",[2],7
same,"Headache (ADR), subjects n (%)",[2],3 (50.0)
same,"Hypoesthesia (ADR), subjects n (%)",[2],0
same,"Impaired healing (ADR), subjects n (%)",[2],0
same,"Malaise (ADR), subjects n (%)",[2],0
same,"Myalgia (ADR), subjects n (%)",[2],0
same,"Nausea (ADR), number of events",[2],12
same,"Nausea (ADR), subjects n (%)",[2],5 (83.3)
same,"Neutropenia (ADR), subjects n (%)",[2],0
same,"Oropharyngeal pain (ADR), subjects n (%)",[2],0
same,"Papule (ADR), subjects n (%)",[2],0
same,"Pollakiuria (ADR), subjects n (%)",[2],0
same,"Presyncope (ADR), subjects n (%)",[2],0
same,"Proctalgia (ADR), number of events",[2],2
same,"Proctalgia (ADR), subjects n (%)",[2],1 (16.7)
same,"Salivary hypersecretion (ADR), subjects n (%)",[2],0
same,"Skin irritation (ADR), subjects n (%)",[2],0
same,"Somnolence (ADR), number of events",[2],2
same,"Somnolence (ADR), subjects n (%)",[2],1 (16.7)
same,"Subjects with ADRs, n (%)",[2],5 (83.3)
same,"Transaminases increased (ADR), subjects n (%)",[2],0
same,"Tremor (ADR), number of events",[2],1
same,"Tremor (ADR), subjects n (%)",[2],1 (16.7)
same,"Vomiting (ADR), number of events",[2],2
same,"Vomiting (ADR), subjects n (%)",[2],2 (33.3)
same,"ADRs, number of events","MAD study, bersiporocin group",150
same,"subjects with ADRs, number","MAD study, bersiporocin group",21
same,"subjects with ADRs, percentage","MAD study, bersiporocin group",88%
